In US20130142717A1, “OFFSHORE GAS SEPARATION PROCESS” (priority 2011, published 2013):
Read-outs that look alike come from different tables or passages of the source.

Experiments:
[1] = tested on: Daphnia sp.; settings: for Classification (aquatic toxicity): based on Daphnia 48 hours EC50
[2] = tested on: Fish; test: Experimental fish 96-hour acute toxicity (values in brackets in Table 4); type: in vivo; settings: experimental result (value in brackets)

Row | Compound | Classification (aquatic toxicity) [1] | Biodegradability (day 0, 20° C.) | Biodegradability (day 1, 20° C.) | Biodegradability (day 2, 20° C.) | Biodegradability (day 3, 20° C.) | Biodegradability (day 4, 20° C.) | Biodegradability (day 5, 20° C.) | Biodegradability (day 6, 20° C.) | Biodegradability (day 7, 20° C.) | Biodegradability (day 8, 20° C.) | Biodegradability (day 9, 20° C.) | Biodegradability (day 10, 20° C.) | Biodegradability (day 11, 20° C.) | Biodegradability (day 12, 20° C.) | Biodegradability (day 13, 20° C.) | Biodegradability (day 14, 20° C.) | Biodegradability (day 15, 20° C.) | Biodegradability (day 16, 20° C.) | Biodegradability (day 17, 20° C.) | Biodegradability (day 18, 20° C.) | further results
1 | COCCOCCOCCNC(C)(C)C [B, Methoxyethoxyethoxyethanol-tert-butylamine] | No classification | 0 | 0.00 | 0.20 | 0.30 | 0.60 | 1.02 | 1.54 | 2.09 | 3.00 | 3.81 | 1.89 | 3.82 | 4.04 | 4.70 | 5.70 | 6.03 | 6.56 | 7.14 | 7.65 | Daphnia Experimental, 48 hours, EC50 ([1]; experimental, 48 hours): EC50 > 100 mg/l; Biodegradability (day 19, 20° C.): 9.52; Biodegradability (day 20, 20° C.): 7.55; Biodegradability (day 21, 20° C.): 7.55; Biodegradability (day 22, 20° C.): 7.55; Biodegradability (day 23, 20° C.): 7.55; Biodegradability (day 24, 20° C.): 7.55; Biodegradability (day 25, 20° C.): 7.55; Biodegradability (day 26, 20° C.): 7.55; Biodegradability (day 27, 20° C.): 7.55; Biodegradability (day 28, 20° C.): 7.55
2 | CC(C)(C)NCCOCCOCCNC(C)(C)C [D, Bis-(t-butylamino ethoxy)ethane (bis-(t-butylamino)triethylene glycol)] | Harmful to aquatic | – | – | – | – | – | – | – | – | – | – | – | – | – | – | – | – | – | – | – | –
3 | Ethoxyethanol-tert-butylamine (tert-butylamino-ethoxy-ethanol) | Harmful to aquatic | 0 | 0.05 | 0.00 | 0.00 | 0.00 | 0.00 | 0.00 | 0.06 | 1.68 | 3.34 | 0.47 | 0.56 | 0.76 | 0.91 | 1.04 | 1.16 | 1.33 | 1.51 | 1.56 | Daphnia 48-hour LC50 ([1]; experimental result (value in brackets)): 31.6 µg/mL; Biodegradability (day 19, 20° C.): 1.58; Biodegradability (day 20, 20° C.): 1.71; Biodegradability (day 21, 20° C.): 1.89; Biodegradability (day 22, 20° C.): 2.00; Biodegradability (day 23, 20° C.): 1.95; Biodegradability (day 24, 20° C.): 2.00; Biodegradability (day 25, 20° C.): 2.06; Biodegradability (day 26, 20° C.): 2.06; Biodegradability (day 27, 20° C.): 2.06; Biodegradability (day 28, 20° C.): 2.06; Fish 96-hour LC50 [2]: 225 µg/mL
